# What was measured:
# human CB2 receptor = target: T1, human CB2 receptor (Homo sapiens, UniProt P34972); experiment: CB2 radioligand competitive binding assay ([3H]CP 55,940 displacement)
# T1 construct: membranes prepared in house
# Procedure: Compounds of the present disclosure were tested for CB1 receptor binding affinity and for CB2 receptor binding affinity. As used herein, “binding affinity” is represented by the IC50 value, which was experimentally determined as described herein. The lower the IC50 value the higher the binding affinity. A compound of the present disclosure may be said to have “binding selectivity” If it has a higher binding affinity for one receptor compared to the other.
# The membranes were prepared from CHO-K1 (Chinese hamster ovary) cells stably transfected with the human CB2 receptor (Cat. #ES-111-C; Perkin Elmer, Boston, MA). The cells were grown adherently and maintained in Ham's F12 medium containing 10% fetal bovine serum (FBS), penicillin, streptomycin and geneticin (G418) at 37° C. in a humid atmosphere of 5% CO2 following the manufacturer's Instructions.
# For membrane preparation the cells were washed with PBS and scraped off the plates in cold homogenization buffer (25 mM HEPES (pH 7.4), 2 mM EDTA) containing protease inhibitor cocktail (Sigma Cat. #P8340). The cell suspension was homogenized with a Pro-PK-01200D Polytron Homogenizer (Pro Scientific) and then centrifuged for 30 min at 120,000×g. The supernatant was discarded and the pellet was re-suspended in the homogenization buffer and stored at −80° C. until the time of use.
# In this experiment, 3H radiolabeled CP 55,940, i.e. [3H]CP 55,940 (Perkin Elmer, Boston, MA), was used as a radioligand for the CB2 receptor to determine the binding affinity of compounds for the CB2 receptor (Scheme 8; above).
# The competition binding experiments (single dose and dose-response) were performed by incubating 0.6 nM of [3H]CP55,940 (specific activity 101 Ci/mmol, Perkin Elmer) and different concentrations of compounds disclosed herein with membranes prepared as above from CHO-K1 cells expressing human CB2 receptor (1 μg of protein/well), 50 mM Tris-HCl (pH 7.4), 5 mM MgCl2, 1 mM CaCl2, and 2 mg/mL BSA.
# For the single dose experiments, the compound stocks (usually 10 mM in DMSO) were diluted to working stocks in the binding buffer to give the final compound concentrations of 10 μM and 1 μM. For the dose-response experiments the test compounds were sequentially diluted to provide the desired concentration range for the IC50 determination. In each case the compounds were pre-incubated with the membrane for 20 min, before adding the radioligand.
# After incubation with the radioligand for 60 min at 37° C., the incubation was terminated by rapid filtration of assay mixture through MultiScreen®HTS^+ 96-well filter plates (Millipore, Cat. #MSFCNXB), pre-soaked for 60 min with 50 mM Tris-HCl (pH 7.4) containing 0.33% polyethylenimine (PEI). The nonspecific binding (NSB) was determined in the presence of 10 μM unlabeled CP55,940. After drying the filter plate at 50° C. for at least 60 min, the filter-bound radioactivity was determined by scintillation spectrometry using the 1450 MicroBeta Plate Counter (Perkin Elmer, Boston, MA). From the dose-response experiments, the IC50 values were determined (see Table 1, CB2 IC50).
# human CB1 receptor [1] = target: T2, human CB1 receptor (Homo sapiens, UniProt P21554); experiment: biochemical; type: binding; parameters: membranes prepared in house
# T2 sequence (P21554 whole entry): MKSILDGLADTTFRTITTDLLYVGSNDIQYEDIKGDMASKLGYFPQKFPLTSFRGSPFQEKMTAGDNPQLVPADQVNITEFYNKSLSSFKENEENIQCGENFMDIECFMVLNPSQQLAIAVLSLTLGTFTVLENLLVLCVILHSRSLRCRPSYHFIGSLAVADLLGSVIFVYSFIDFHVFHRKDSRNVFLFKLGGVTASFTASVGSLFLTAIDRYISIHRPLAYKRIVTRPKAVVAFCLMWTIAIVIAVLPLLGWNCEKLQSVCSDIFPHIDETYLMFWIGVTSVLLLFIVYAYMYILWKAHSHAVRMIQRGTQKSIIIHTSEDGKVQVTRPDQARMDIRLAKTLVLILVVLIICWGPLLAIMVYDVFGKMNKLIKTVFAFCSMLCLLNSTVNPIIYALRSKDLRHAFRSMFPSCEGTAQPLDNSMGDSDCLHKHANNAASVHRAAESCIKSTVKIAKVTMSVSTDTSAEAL
# human CB1 receptor [2] = target: T2, human CB1 receptor; experiment: PathHunter β-Arrestin functional assay, CB1 receptor, agonist mode; type: cell-based; parameters: membranes prepared in house
# Description: In the PathHunter® β-Arrestin system from DiscoveRx (Eurofins, Fremont, CA), a small peptide, the ProLink™ (PK), is fused to the intracellular sequence of a GPCR target, and a complementing peptide, the enzyme acceptor (EA) fragment, is fused to β-arrestin. After binding to its specific ligand, the GPCR target recruits β-arrestin, forcing the complementation of the two β-galactosidase enzyme fragments (EA and PK) to produce a functional β-galactosidase enzyme. The enzyme activity, and thus the amount of ligand bound to the GPCR, is detected with a single addition of a reagent cocktail to lyse the cells and produce a chemiluminescent signal before being analyzed using a traditional plate reader.
# PathHunter® CHO-K1 CNR1 β-Arrestin cells (DiscoverRx, cat. Number 93-0959C2) stably expressing CB1 receptor (CB1R) were grown in Ham's F12 medium curtaining 10% fetal bovine serum (FBS), 1% penicillin/streptomycin, 300 μg/mL Hygromycin B and 800 μg/mL geneticin (G418) and maintained in 37° C. incubators at 5% CO2. […]
# The incubation was terminated by adding the detection reagent (19 parts of 1% CHAPS, 5 parts Emerald-II and 1 part Galacton-Star), equivalent to 50% of the assay volume to each wells. Plates were incubated for 1 hour in the dark at room temperature, followed by chemiluminescence detection using a microplate reader.
# Data were analysed by generating nonlinear regression curves. […]
# human CB1 receptor [3] = target: T2, human CB1 receptor; experiment: CB1 receptor AequoScreen functional assay (agonist mode); type: cell-based; parameters: Perkin Elmer (host cells ES-000-A24); host or cells: CHO-K1 aeq/G16 (transient, FuGene)
# Description: Aequorin is a photoprotein originating from the jellyfish Aequorea Victoria. The apo-enzyme (apoaequorin) requires a hydrophobic prosthetic group, coelenterazine, to be converted to aequorin, the active form of the enzyme. […] Upon calcium binding, aequorin oxidizes coelenterazine into coelenteramide with the production of CO2 and emission of light. The consumption of aequorin is proportional to the calcium concentration. Therefore, measurement of the light emitted upon oxidation of coelenterazine is a reliable tool for measurement of intracellular calcium flux. […]
# FuGene from Promega (Catalog number selected: E2691) was used to transiently transfect CHO-K1 aeq/G16 cells with an expression vector containing the open reading frame (ORF) expression clone for CNR1 (NM_016083.4; bacterial stock; Gencopeia Inc.) at a ratio of 15 ng of plasmid DNA to 480,000 cells. […]
# After incubation, the mixture was diluted 3-fold in assay media and kept under constant gentle agitation at room temperature. […] Cells were injected automatically over the serial diluted test compounds and CP55,940 using a liquid dispenser, and the luminescence was recorded over 10-30 seconds in a microplate reader.
# Sigmoidal dose-response curves were generated using average Luminescent Counts Per Second (LCPS) which were recorded immediately after cells were mixed with compounds in agonist mode.
# T1 sequence (P34972 whole entry): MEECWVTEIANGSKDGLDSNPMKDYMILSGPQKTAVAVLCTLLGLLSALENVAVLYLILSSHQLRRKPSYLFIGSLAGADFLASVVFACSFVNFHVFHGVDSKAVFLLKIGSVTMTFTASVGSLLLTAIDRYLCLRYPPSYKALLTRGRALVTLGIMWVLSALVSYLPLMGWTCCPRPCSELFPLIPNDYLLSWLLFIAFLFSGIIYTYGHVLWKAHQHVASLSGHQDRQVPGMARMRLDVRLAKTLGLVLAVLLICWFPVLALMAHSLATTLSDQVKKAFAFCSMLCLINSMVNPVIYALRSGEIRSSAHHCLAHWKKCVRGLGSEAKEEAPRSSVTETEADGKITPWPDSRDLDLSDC
smiles,measurement,setting,value
"CCCCCc1cc(O)c(C2C=C(C)CCC2)c(O)c1S(=O)(=O)N(CC)CC (stereo not shown) [Compound 62c, N,N-diethyl-2,6-dihydroxy-5′-methyl-4-pentyl-1′,2′,3′,4′-tetrahydro-[1,1′-biphenyl]-3-sulfonamide]",IC50,"human CB2 receptor; [3H]CP 55,940 displacement, CHO-K1 membranes expressing human CB2 receptor",< 100 nM
same,Selectivity CB2,"human CB2 receptor; fold difference in binding between CB1 and CB2, shown in the column of the receptor with higher affinity, 1.00 in both = about same affinity",31.82 fold
same,IC50,human CB1 receptor [1],100 to 990 nM
same,EC50,human CB1 receptor [2],~499 nM
same,"relative efficacy in comparison to CP55,940","human CB1 receptor [2]; agonist mode, PathHunter CHO-K1 CNR1 β-Arrestin cells",about 56%
same,EC50,human CB1 receptor [3],~502 nM
same,"relative efficacy in comparison to CP55,940","human CB1 receptor [3]; AequoScreen, agonist mode, CHO-K1 aeq/G16 cells transfected with CNR1",about 117%

# Reference: patent US12012373B2, “Cannabinoid derivatives” (CANOPY GROWTH CORPORATION, priority 2019, dated 2024)
